These results are taken from article PMC8839658, “Design and Activity of Novel Oxadiazole Based Compounds That Target Poly(ADP-ribose) Polymerase” (Molecules, 2022).

The first data set has as its system MCF-7 cells. The data set can be described thus: MCF-7 cell viability assay (Alamar Blue). The data set is classed as cell-based, human. The settings on record: Homo sapiens, MCF7, 72 h, MCF-7, 72 h, Alamar Blue; read-out: IC50, cell viability of MCF-7 cells. Here is the method:
Initially, the newly synthesized oxadiazoles were examined in cell viability studies in human breast cancer (MCF-7) cells using Alamar Blue assays.
MCF-7 and MDA-MB-231 (2000) cells were cultured in MEM or Leibovitz’s L-15 medium enriched with 2% FBS and maintained in a humidified atmosphere of 5% CO2 at 37 °C [44]. DMSO dissolved compounds were kept as a stock solution, and diluted with a cell culture medium to the desired concentration. Cancer cells (4 × 10^3) were grown overnight in 96-well plates, cultured, and treated with oxadiazoles or Olaparib at 0, 0.01, 0.1, 10, 100, and 1000 µM concentrations for 72 h. The inhibitory effect of the compounds was assessed using Alamar Blue reagent.
MCF-7 and MDA-MB-231 were treated with 5u, 5s and Olaparib (0, 0.01, 0.1, 1, 10, 100 µM) for 72 h, respectively. The viability of MCF-7 (A) and MDA-MB-231 cells (B) were analyzed using a microplate reader to measure the fluorescence of Alamar Blue reagent (excitation wavelength is between 530–560 nm and emission wavelength is 590 nm). The results are means of triplicate determinations.
Regarding `Cc1cc(-c2cccc(-c3nnc(-c4ccc5c(c4)OCCO5)o3)c2)cnc1Cl` [C00002], the IC50 (commonly the concentration that inhibits the measured activity by half) amounted to 160 µM. On the same count and under the same terms, to `COc1ccc(Cc2nnc(-c3cccc(-c4cncnc4)c3)o2)cc1` [C00003] belongs 31.5 µM; to `FC(F)(F)c1ccc(-c2cccc(-c3nnc(-c4ccc5c(c4)OCCO5)o3)c2)cc1` [C00004], 205 µM. On the same count and under the same terms, as for `O=C(NC1CCCC1)c1cccc(-c2cccc(-c3nnc(-c4ccc5c(c4)OCCO5)o3)c2)c1` [C00006], the figure is 161 µM; as for `c1cc(-c2cncnc2)cc(-c2nnc(-c3ccc4c(c3)OCCO4)o2)c1` [C00007], 43.5 µM; as for `COc1cccc(-c2cccc(-c3nnc(-c4ccc5c(c4)OCCO5)o3)c2)c1` [C00008], 345 µM. Same read-out and setting: to `COc1ccc(Cc2nnc(-c3cccc(-c4cncc(C)c4C)c3)o2)cc1OC` [C00009] belongs 33.2 µM. On to `c1cc(-c2nnc(-c3ccc4c(c3)OCCO4)o2)cc(-c2cccc3ccccc23)c1` [C00010], for which the half-inhibitory concentration (IC50) stood at 74.8 µM. On to `Cc1cncc(-c2cccc(-c3nnc(-c4ccc5c(c4)OCCO5)o3)c2)c1C` [C00011], for which the half-maximal inhibitory concentration (IC50) is 76.4 µM. On the same count and under the same terms, to `c1cc(-c2ccncc2)cc(-c2nnc(-c3ccc4c(c3)OCCO4)o2)c1` [C00012] belongs over 100 µM; to `COc1ccc(Cc2nnc(-c3cccc(-c4cccnc4)c3)o2)cc1` [C00013], 30.9 µM; to `c1cncc(-c2cccc(-c3nnc(-c4ccc5c(c4)OCCO5)o3)c2)c1` [C00016], 182 µM. Consider `Cc1c(-c2cccc(-c3nnc(-c4ccc5c(c4)OCCO5)o3)c2)ccnc1F` [C00017], for which the IC50 is 265 µM. On the same count and under the same terms, as for `COc1ccc(Cc2nnc(-c3cccc(-c4cnc(F)c(C)c4)c3)o2)cc1` [C00018], the figure is 41.2 µM. Still for that read-out and setting: to `O=Cc1cccc(-c2cccc(-c3nnc(-c4ccc5c(c4)OCCO5)o3)c2)c1` [C00021] belongs 85.3 µM; to `Cc1cc(-c2cccc(-c3nnc(-c4ccc5c(c4)OCCO5)o3)c2)cnc1F` [C00022], 84 µM. On the same count and under the same terms, as for `COc1ccc(Cc2nnc(-c3cccc(-c4ccc(C(C)=O)s4)c3)o2)cc1OC` [C00025], the figure is over 100 µM; as for `COc1cccc2c1C(=O)c1c(O)c3c(c(O)c1C2=O)C[C@@](O)(C(=O)CO)C[C@@H]3O[C@H]1C[C@H](N)[C@H](O)[C@H](C)O1` [Doxorubicin, reference compound], 0.24 µM; as for `COc1ccc(Cc2nnc(-c3cccc(-c4ccc(C(C)=O)s4)c3)o2)cc1` [compound 5w, 1-(5-(3-(5-(4-Methoxybenzyl)-1,3,4-oxadiazol-2-yl)phenyl)thiophen-2-yl)ethanone], 23.1 µM.

Still in this data set, the particulars now being: MCF-7, 72 h, Alamar Blue; read-out: IC50, cell viability of MCF-7 cells.
Take `COc1ccc(Cc2nnc(-c3cccc(-c4cncnc4)c3)o2)cc1OC` [C00005]: the IC50 came out at 21.9 µM. On the same count and under the same terms, to `COc1ccc(Cc2nnc(-c3cccc(-c4cccnc4)c3)o2)cc1OC` [C00014] belongs 27.1 µM; to `COc1ccc(Cc2nnc(-c3cccc(-c4ccnc(F)c4C)c3)o2)cc1OC` [C00015], 15.3 µM. Still for that read-out and setting: to `COc1ccc(Cc2nnc(-c3cccc(-c4cccc(C=O)c4)c3)o2)cc1` [C00019] belongs 1.45 µM; to `COc1ccc(Cc2nnc(-c3cccc(-c4cnc(F)c(C)c4)c3)o2)cc1OC` [C00020], 18.4 µM. Take `COc1ccc(Cc2nnc(-c3cccc(-c4ccc(C(C)=O)s4)c3)o2)cc1` [C00023]: the IC50 worked out at 23.1 µM. Take `COc1ccc(Cc2nnc(-c3cccc(-c4ccnc(F)c4C)c3)o2)cc1` [C00024]: the 50% inhibitory concentration (IC50) was 25 µM.

System in the next data set: not given
Experiment: not given
Details: not given
Regarding `FC(F)(F)c1ccc(-c2cccc(-c3nnc(-c4ccc5c(c4)OCCO5)o3)c2)cc1` [5b, 2-(2,3-Dihydrobenzo[b][1,4]dioxin-6-yl)-5-(4′-(trifluoromethyl)-[1,1′-biphenyl]-3-yl)-1,3,4-oxadiazole], the melting point (usually the temperature, or range, at which the solid turns liquid) is 160 to 162 °C. As to `O=C(NC1CCCC1)c1cccc(-c2cccc(-c3nnc(-c4ccc5c(c4)OCCO5)o3)c2)c1` [5c, N-Cyclopentyl-3′-(5-(2,3-dihydrobenzo[b][1,4]dioxin-6-yl)-1,3,4-oxadiazol-2-yl)-[1,1′-biphenyl]-3-carboxamide], the melting point was 186 to 188 °C.
